System: 349418-098-R tumor spheroid viability
Test: Anticancer human tumor 349418-098-R patient-derived lung adenocarcinoma cell line growth inhibition
Details: spheroids with HUVEC and MSC; for IC50: curve of first compound; for viability, T/C: stronger effect = lower value
Summary of the method: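 Complex tumor spheroids combined malignant cells with endothelial cells and mesenchymal stem cells. DNA-damaging drugs and DNA repair inhibitors were tested alone and in combination, at half-log dilutions down from clinical Cmax (top 10 microM if Cmax unknown), 0.25% DMSO final.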
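Further: spheroids exposed to compound for 7 days before measurement.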
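Wherever viability, T/C is given: percent of vehicle control viability with 100% = DMSO-treated spheroids.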

COc1ccc([C@@H](O)c2cc(-c3ncnc4cc(N5CCOCC5)ccc34)c(F)cc2Cl)nn1 + COc1cc2c(cc1O)CCNC21CSC2c3c(OC(C)=O)c(C)c4c(c3C(COC1=O)N1C(O)C3Cc5cc(C)c(OC)c(O)c5C(C21)N3C)OCO4
IC50 (second compound 30 pM): 5960 nM | IC50 (second compound 94.9 pM): 3850 nM | IC50 (second compound 0.0003 µM): 399 nM | IC50 (second compound 0.000949 µM): < 31.6 nM | IC50 (second compound 0.003 µM): < 31.6 nM | viability, T/C (second compound 30 pM, first compound 0.0316 µM): 97.2% | viability, T/C (second compound 30 pM, first compound 0.1 µM): 92.9% | viability, T/C (second compound 30 pM, first compound 0.316 µM): 102% | viability, T/C (second compound 30 pM, first compound 1 µM): 98.6% | viability, T/C (second compound 30 pM, first compound 3.16 µM): 83.3% | viability, T/C (second compound 30 pM, first compound 10 µM): 22.5% | viability, T/C (second compound 94.9 pM, first compound 0.0316 µM): 105% | viability, T/C (second compound 94.9 pM, first compound 0.1 µM): 101% | viability, T/C (second compound 94.9 pM, first compound 0.316 µM): 94.2% | viability, T/C (second compound 94.9 pM, first compound 1 µM): 94.3% | viability, T/C (second compound 94.9 pM, first compound 3.16 µM): 56.3% | viability, T/C (second compound 94.9 pM, first compound 10 µM): 18.3% | viability, T/C (second compound 0.0003 µM, first compound 0.0316 µM): 84.1% | viability, T/C (second compound 0.0003 µM, first compound 0.1 µM): 90.8% | viability, T/C (second compound 0.0003 µM, first compound 0.316 µM): 60% | viability, T/C (second compound 0.0003 µM, first compound 1 µM): 9.13% | viability, T/C (second compound 0.0003 µM, first compound 3.16 µM): 2.15% | viability, T/C (second compound 0.0003 µM, first compound 10 µM): 0.54% | viability, T/C (second compound 0.000949 µM, first compound 0.0316 µM): 0.44% | viability, T/C (second compound 0.000949 µM, first compound 0.1 µM): 0.79% | viability, T/C (second compound 0.000949 µM, first compound 0.316 µM): 0.24% | viability, T/C (second compound 0.000949 µM, first compound 1 µM): 0.35% | viability, T/C (second compound 0.000949 µM, first compound 3.16 µM): 1.2% | viability, T/C (second compound 0.000949 µM, first compound 10 µM): 2.19% | viability, T/C (second compound 0.003 µM, first compound 0.0316 µM): 1.61% | viability, T/C (second compound 0.003 µM, first compound 0.1 µM): 2.06% | viability, T/C (second compound 0.003 µM, first compound 0.316 µM): 2.65% | viability, T/C (second compound 0.003 µM, first compound 1 µM): 3.97% | viability, T/C (second compound 0.003 µM, first compound 3.16 µM): 4.18% | viability, T/C (second compound 0.003 µM, first compound 10 µM): 4.47%

Cc1sc2c(c1C)C(c1ccc(Cl)cc1)=NC(CC(=O)Nc1ccc(O)cc1)c1nnc(C)n1-2 (stereo not given) + Cn1nnc2c(C(N)=O)ncn2c1=O
IC50 (second compound 1 µM): 143 nM | IC50 (second compound 3.16 µM): 133 nM | IC50 (second compound 10 µM): 129 nM | IC50 (second compound 31.6 µM): 154 nM | IC50 (second compound 100 µM): 129 nM | viability, T/C (second compound 1 µM, first compound 0.00949 µM): 99% | viability, T/C (second compound 1 µM, first compound 0.03 µM): 102% | viability, T/C (second compound 1 µM, first compound 0.0949 µM): 67.8% | viability, T/C (second compound 1 µM, first compound 0.3 µM): 16.6% | viability, T/C (second compound 1 µM, first compound 0.949 µM): 1.96% | viability, T/C (second compound 1 µM, first compound 3 µM): 0.51% | viability, T/C (second compound 3.16 µM, first compound 0.00949 µM): 99.2% | viability, T/C (second compound 3.16 µM, first compound 0.03 µM): 105% | viability, T/C (second compound 3.16 µM, first compound 0.0949 µM): 62.7% | viability, T/C (second compound 3.16 µM, first compound 0.3 µM): 16.5% | viability, T/C (second compound 3.16 µM, first compound 0.949 µM): 1.3% | viability, T/C (second compound 3.16 µM, first compound 3 µM): 0.49% | viability, T/C (second compound 10 µM, first compound 0.00949 µM): 99.2% | viability, T/C (second compound 10 µM, first compound 0.03 µM): 102% | viability, T/C (second compound 10 µM, first compound 0.0949 µM): 63.7% | viability, T/C (second compound 10 µM, first compound 0.3 µM): 10.9% | viability, T/C (second compound 10 µM, first compound 0.949 µM): 1.25% | viability, T/C (second compound 10 µM, first compound 3 µM): 0.39% | viability, T/C (second compound 31.6 µM, first compound 0.00949 µM): 103% | viability, T/C (second compound 31.6 µM, first compound 0.03 µM): 103% | viability, T/C (second compound 31.6 µM, first compound 0.0949 µM): 72.1% | viability, T/C (second compound 31.6 µM, first compound 0.3 µM): 19.3% | viability, T/C (second compound 31.6 µM, first compound 0.949 µM): 1.26% | viability, T/C (second compound 31.6 µM, first compound 3 µM): 0.43% | viability, T/C (second compound 100 µM, first compound 0.00949 µM): 106% | viability, T/C (second compound 100 µM, first compound 0.03 µM): 105% | viability, T/C (second compound 100 µM, first compound 0.0949 µM): 64.9% | viability, T/C (second compound 100 µM, first compound 0.3 µM): 9.26% | viability, T/C (second compound 100 µM, first compound 0.949 µM): 0.75% | viability, T/C (second compound 100 µM, first compound 3 µM): 0.45%

Reference: PubChem BioAssay AID1845197 (Molecular Pharmacology Branch, DTP, NCI, 2023)
